# Measurements taken from patent publication US20140323575A1, “TYROSINE ISOMERS AS THERAPEUTIC AGENTS” (CONSEJO NACIONAL DE INVESTIGACIONES CIENTIFICAS Y TECNICAS …, priority 2011, published 2014).
# Experiments:
# LB tumor = assay: In vivo growth of s.c. LB tumor implants (primary, secondary under CR, established, ascitic); set-up: species or system mice; conditions: for inhibition of tumor cells in euthymic versus nude mice: mouse, in vivo
# LB tumor cells = assay: In vitro LB tumor cell proliferation ([3H]-thymidine uptake); type: cell-based, mice; conditions: for IC50: Mus musculus, substance alone, read-out: GIU50/mL on in vitro LB tumor cell proliferation; for reversibility of the inhibitory effect: after 18 hours of culture, old medium replaced by fresh medium
# Protocol: Each point (percentage of cpm incorporated by LB cells as compared with the control) represents the mean±SE of 3 experiments. Significance versus control, meta-tyrosine and peak 2: P<0.001 at >2.75 μg/mL; peak 2: P<0.05 at 2.75 μg/mL. ortho-tyrosine P<0.001 at 500 to 125 μg/mL; P<0.002 at 30 μg/mL. Peak 3: P<0.002 and P<0.01, at 31 and 15.5 μg/mL, respectively. Rescue of in vitro LB tumor inhibition mediated by meta-tyrosine (150 μg/mL)(B) or ortho-tyrosine (150 μg/mL) (C) by co-culturing with 150 μg/mL of individual protein amino acids. Each value represents the mean±SE of 8 to 18 determinations for (B) and 4 to 9 determinations for (C). a, P<0.01; c, P<0.001 versus meta- or ortho-tyrosine. Data with saline was similar to data obtained with each amino acid alone.
# Fractionation of serum from mice bearing a subcutaneous LB tumor (size≧2,000 mm^3) was carried out through several steps of purification (FIG. 1). Serum from normal mice was similarly fractioned as control. At all stages of the purification, the presence of the inhibitory factor was monitored by the [^3H]-thymidine uptake assay as a measure of LB tumor cell proliferation. First, serum was decomplemented and subjected to dialysis. The inhibitory factor was recovered only in the dialyzable fraction (MW<12,500 Da) and was then concentrated by lyophilization and applied successively to Sephadex G-25 and G-15 chromatographic columns, where activity was recovered at fractions corresponding to a molecular weight below 1,000 Da. These fractions were lyophilized and further purified with an HPLC column C18 in a gradient of acetonitrile in TFA (first HPLC). In 12 similar and independent experiments, growth inhibitory activity was systematically recovered in only 1 fraction eluted at near 20% acetonitrile (FIG. 2).
# To test directly whether a “cocktail” of amino acids similar to that detected close to the “primary site” was more counteracting of the antitumor effects produced by m- and o-tyrosine than a “secondary site cocktail,” different concentrations of a mixture of m-tyrosine and o-tyrosine (ratio 1:1) were assayed on LB tumor cell proliferation, alone or together with a primary or a secondary site cocktail of amino acids.
# ERK1 and ERK2 = assay: Western blot of p-ERK 1/2 in LB tumor cells; type: cell-based, mice; conditions: LB cells cultured 3 minutes with m-tyrosine (250 μg/mL)
# Protocol: (§1) FIG. 8 illustrates the effect of meta-tyrosine on the expression of phosphorylated (p)-Erk 1/2 and p-STAT3 in LB tumor cells using Western blot: 3×10^5 LB tumor cells in 0.1 mL of medium were cultured in the presence of 0.1 mL of meta-tyrosine (m-Tyr; 250 μg/mL), phenylalanine (Phe, 250 μg/mL), meta-tyrosine (250 μg/mL)+phenylalanine (250 μg/mL), or saline for 3 minutes (to measure p-ERK 1/2) or for 8 hours (to measure p-STAT3). Positive control was obtained by treating LB cells with pervanadate. Controls with acting, total ERK 1/2, and total STAT3 were also added. FIG. 8A illustrates a representative experiment showing p-ERK 1/2 expression. FIG. 8B is a histogram showing the mean of 5 experiments; a, P<0.01 versus saline and versus meta-tyrosine+phenylalanine; P<0.02 versus phenylalanine. FIG. 8C illustrates a representative experiment showing p-STAT3 expression. […]
# (§2) On this basis, we analyzed, first, the effect of m-tyrosine on ERK1 and ERK2 as 2 examples of protein kinases that are activated by the mitogen activated protein/extracellular signal-regulated kinase (MAP/ERK) signal transduction pathway that normally couples intracellular responses associated with cell proliferation, to the binding of growth factors to cell surface receptors (Kohno M, and Pouyssegur J. 2006. Targeting the ERK signaling pathway in cancer therapy. Ann Med; 38:200-211). […]
# CEI tumor = assay: In vivo growth of s.c. CEI epidermoid carcinoma implants; set-up: species or system mice; conditions: for effect on growth of CEI tumor implants: mouse, in vivo
# Protocol: Twelve mice received a s.c. implant of 1×10^6 CEI tumor cells in the right flank and 28 days later they received a secondary implant of 3×10^5 CEI tumor cells in the left flank. […] The remaining 6 mice received 0.2 ml of phenylalanine (500 μg/ml) at the site of the secondary implant, daily, for 19 days, starting 1 hour later than the secondary implant. These secondary implants grew as in 6 controls only receiving the implant in the left flank (tumor volumes of secondary tumor+phenylalanine and of controls, 20 days after the implant in the left flank were 358±38 mm^3 and 373±93 mm^3, respectively). […] Significance: Secondary tumor and control+m-tyrosine vs. control: p<0.01; vs. secondary tumor+phenylalanine: p<0.001.
# [1] = system: Chinese-hamster ovary (CHO) cells; conditions: cited from earlier work; for toxicity to CHO cells: incubated in vitro for 7-10 days
# MC-C tumor cells = assay: In vitro proliferation of MC-C tumor cells; type: cell-based; conditions: dose-dependent, not shown
# [2] = Evaluation of toxicity of the tyrosine isomers; type: in vivo, mice; conditions: for health of mice after three weeks of treatment / hematologic populations of the blood or the spleen / histological alterations in analyzed tissues / anti-RRC antibody levels: higher dose; for histological alterations in analyzed tissues: three weeks of treatment; for anti-RRC antibody levels: tumor bearing mice and normal mice
# Protocol: The effect of meta-tyrosine and ortho-tyrosine on the immune response triggered by a conventional antigen was evaluated. Ram red cells (RRC) were used.
# C7HI tumor cells = assay: In vitro proliferation of C7HI tumor cells; type: cell-based; conditions: dose-dependent, not shown
# STAT3 = assay: Western blot of p-STAT3 in LB tumor cells; type: cell-based, mice; conditions: LB cells cultured 8 hours with m-tyrosine (250 μg/mL)
# Protocol: as §1, §2
Compound,inhibition of tumor cells in euthymic versus nude mice (LB tumor),effect on ascitic LB tumor cells (LB tumor; not shown),IC50 (LB tumor cells),reversibility of the inhibitory effect (LB tumor cells),inhibitory effect of m-tyrosine relative to o-tyrosine (LB tumor cells; in vitro LB tumor cell proliferation),activation of ERK1 and ERK2 (p-ERK 1/2 expression) (ERK1 and ERK2),"tumor volume 20 days after the implant in the left flank (CEI tumor; CEI implant in left flank only, 0.2 ml of 500 μg/ml daily for 19 days at the site of the implant)",effect on growth of CEI tumor implants (CEI tumor),toxicity to CHO cells [1],CHO cells alive 10 days after start of the in vitro culture ([1]; treated with meta-tyrosine),in vitro proliferation of MC-C tumor cells (MC-C tumor cells),"toxic side effects in tumor-bearing mice ([2]; during treatment of MC-C, CEI and C7HI tumors)",health of mice after three weeks of treatment [2],hematologic populations of the blood or the spleen [2],histological alterations in analyzed tissues [2],anti-RRC antibody levels [2],in vitro proliferation of C7HI tumor cells (C7HI tumor cells),activation of STAT3 (p-STAT3 expression) (STAT3)
"NC(Cc1cccc(O)c1)C(=O)O (centres unmarked) [meta-tyrosine, 3-hydroxyphenylalanine]",Identical inhibition,inhibitory,4.5 ± 0.9 µg/mL,reversible,about 10 times,significantly reduced,0 mm^3,sharp inhibitory effects,toxic,70%,inhibited,without exhibiting toxic side effects,remained in good health,did not affect,no histological alterations,does not affect,inhibited,significantly reduced
"NC(Cc1ccccc1O)C(=O)O (centres unmarked) [ortho-tyrosine, 2-hydroxyphenylalanine]",Identical inhibition,,46.7 ± 5.2 µg/mL,reversible,,,,inhibitory,toxic,,inhibited,,remained in good health,did not affect,no histological alterations,does not affect,inhibited,
